{"source": "paper PMC10588032", "about": "(Journal of the American Chemical Society, 2023)", "molecules": {"B1": {"name": "β-arrestin-1-Venus (natural protein, UniProt P49407 1-418, looked up)", "chain": "MGDKGTRVFKKASPNGKLTVYLGKRDFVDHIDLVDPVDGVVLVDPEYLKERRVYVTLTCAFRYGREDLDVLGLTFRKDLFVANVQSFPPAPEDKKPLTRLQERLIKKLGEHAYPFTFEIPPNLPCSVTLQPGPEDTGKACGVDYEVKAFCAENLEEKIHKRNSVRLVIRKVQYAPERPGPQPTAETTRQFLMSDKPLHLEASLDKEIYYHGEPISVNVHVTNNTNKTVKKIKISVRQYADICLFNTAQYKCPVAMEEADDTVAPSSTFCKVYTLTPFLANNREKRGLALDGKLKHEDTNLASSTLLREGANREILGIIVSYKVKVKLVVSRGGLLGDLASSDVAVELPFTLMHPKPKEEPPHREVPENETPVDTNLIELDTNDDDIVFEDFARQRLKGMKDDKEEEEDGTGSPQLNNR"}}, "key": {"PTHR2": {"target": "PTHR2 (Homo sapiens, UniProt P49190)", "sequence (P49190 25-550, species assumed)": "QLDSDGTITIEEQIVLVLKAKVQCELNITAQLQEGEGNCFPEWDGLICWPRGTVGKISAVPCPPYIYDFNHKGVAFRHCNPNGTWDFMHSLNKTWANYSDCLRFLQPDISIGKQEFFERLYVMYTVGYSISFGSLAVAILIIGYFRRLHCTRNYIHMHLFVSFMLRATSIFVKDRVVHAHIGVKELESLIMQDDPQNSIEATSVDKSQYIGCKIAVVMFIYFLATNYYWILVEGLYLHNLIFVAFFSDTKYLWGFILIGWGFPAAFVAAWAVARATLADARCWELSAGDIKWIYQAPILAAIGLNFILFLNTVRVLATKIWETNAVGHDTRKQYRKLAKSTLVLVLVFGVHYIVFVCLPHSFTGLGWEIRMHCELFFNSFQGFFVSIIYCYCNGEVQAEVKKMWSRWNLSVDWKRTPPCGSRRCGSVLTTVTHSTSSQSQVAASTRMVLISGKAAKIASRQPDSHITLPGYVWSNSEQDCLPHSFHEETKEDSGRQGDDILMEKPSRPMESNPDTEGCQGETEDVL", "experiment": "PTHR2 activation via cAMP production", "type": "cell-based"}, "NLuc-PTHR1 [1]": {"target": "T1, NLuc-PTHR1 (Homo sapiens, UniProt Q03431)", "T1 sequence (Q03431 27-593)": "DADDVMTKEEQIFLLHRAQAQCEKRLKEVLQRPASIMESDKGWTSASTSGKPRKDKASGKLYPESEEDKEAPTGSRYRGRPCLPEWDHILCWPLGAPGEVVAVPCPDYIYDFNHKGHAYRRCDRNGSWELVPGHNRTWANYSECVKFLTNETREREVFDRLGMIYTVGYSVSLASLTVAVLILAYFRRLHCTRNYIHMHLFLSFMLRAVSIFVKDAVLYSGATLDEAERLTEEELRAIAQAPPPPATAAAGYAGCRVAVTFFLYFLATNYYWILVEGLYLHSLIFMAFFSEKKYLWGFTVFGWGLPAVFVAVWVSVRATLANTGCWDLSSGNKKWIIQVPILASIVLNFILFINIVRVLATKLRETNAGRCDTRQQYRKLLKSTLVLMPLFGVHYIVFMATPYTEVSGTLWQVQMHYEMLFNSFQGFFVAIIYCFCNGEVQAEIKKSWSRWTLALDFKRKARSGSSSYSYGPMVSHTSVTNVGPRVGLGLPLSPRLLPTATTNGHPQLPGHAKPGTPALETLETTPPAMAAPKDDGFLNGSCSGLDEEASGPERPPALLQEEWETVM", "experiment": "NLuc-PTHR1 competition binding"}, "PTHR1 [2]": {"target": "T2, PTHR1 (Homo sapiens, UniProt Q03431)", "T2 sequence (Q03431 27-593)": "T1 sequence (Q03431 27-593)", "experiment": "β-arrestin-1 recruitment to the PTHR1", "type": "cell-based"}, "PTHR1 [3]": {"test_system": "PTHR1", "experiment": "PTHR1 cAMP washout assay", "type": "cell-based", "settings": "10 nM agonist for 20 min, then PTHR1 antagonist PTH(7-34) introduced"}, "PTHR1 [4]": {"target": "T2, PTHR1", "experiment": "PTHR1 activation via cAMP production", "type": "cell-based"}, "PTHR1 [5]": {"target": "T2, PTHR1", "experiment": "β-arrestin-2 recruitment to the PTHR1", "type": "cell-based"}, "NLuc-PTHR1 [6]": {"target": "NLuc-PTHR1 (UniProt Q03431)", "experiment": "FRET or BRET"}, "NLuc-PTHR1 [7]": {"target": "NLuc-PTHR1 (UniProt Q03431)"}, "PTHR1-RLuc8": {"target": "T3, PTHR1-RLuc8 (UniProt Q03431 27-593)", "T3 sequence (looked up)": "T1 sequence (Q03431 27-593)", "experiment": "FRET or BRET"}}, "note": "*1 amine or outer side, *2 acyl side, *3 side chain or, on linkers, in order; H or OH if unused. Where a SMILES comes first, the peptide text is derived from it. [ ]: non-standard residue; d: D form. X1 = CC(C)C[C@@H](CCC(=O)[*:2])N[*:1]; β3hN = NC(=O)C[C@H](N)CC(=O)O"}
{"molecule": "CC[C@H](C)[C@H](NC(=O)[C@H](CCC(=O)O)NC(=O)[C@H](CO)NC(=O)[C@@H](NC(=O)[C@@H](N)CO)C(C)C)C(=O)N[C@@H](CCC(N)=O)C(=O)N[C@@H](CC(C)C)C(=O)N[C@@H](CCSC)C(=O)N[C@@H](Cc1c[nH]cn1)C(=O)N[C@@H](CC(N)=O)CC(=O)N[C@H](CCC(=O)N[C@@H](CCCCN)C(=O)N[C@@H](Cc1c[nH]cn1)C(=O)N[C@@H](CC(C)C)C(=O)N[C@@H](CC(N)=O)C(=O)N[C@@H](CO)C(=O)N[C@@H](CCSC)C(=O)N[C@@H](CCC(=O)O)C(=O)N[C@@H](CCCNC(=N)N)C(=O)N[C@H](C(=O)N[C@@H](CCC(=O)O)C(=O)N[C@@H](Cc1c[nH]c2ccccc12)C(=O)N[C@@H](CC(C)C)C(=O)N[C@@H](CCCNC(=N)N)C(=O)N[C@@H](CCCCN)C(=O)N[C@@H](CCCCN)C(=O)N[C@@H](CC(C)C)C(=O)N[C@@H](CCC(N)=O)C(=O)N[C@@H](CC(=O)O)C(=O)N[C@H](C(=O)N[C@@H](Cc1c[nH]cn1)C(=O)N[C@@H](CC(N)=O)C(=O)N[C@@H](Cc1ccccc1)C(N)=O)C(C)C)C(C)C)CC(C)C", "note": "[Peptide 1] (H-SVSEIQLMH[β3hN][X1]KHLNSMERVEWLRKKLQDVHNF-NH2; N-terminus assumed)", "values": [{"measurement": "EC50", "setting": "PTHR2", "value": 31.6, "unit": "nM"}, {"measurement": "PTHR2 cAMP Production % Max", "setting": "PTHR2; maximal response normalized against PTH(1-34), ≥4 independent experiments, ± SEM", "value": "76 ± 3", "unit": "%"}, {"measurement": "IC50", "setting": "NLuc-PTHR1 [1]", "value": 126, "unit": "nM"}, {"measurement": "EC50", "setting": "PTHR1 [2]", "value": 100, "unit": "nM"}, {"measurement": "PTHR1 β-arrestin-1 Recruitment % Max", "setting": "PTHR1 [2]; normalized against PTH(1-34), ≥4 independent experiments, ± SEM", "value": "27 ± 3", "unit": "%"}, {"measurement": "AUC of post-washout PTHR1 cAMP, lower compared to PTH(1-34)", "setting": "PTHR1 [3]", "value": "~ 40%"}, {"measurement": "EC50", "setting": "PTHR1 [4]", "value": 2.51, "unit": "nM"}, {"measurement": "PTHR1 cAMP Production % Max", "setting": "PTHR1 [4]; maximal response normalized against PTH(1-34), 4 independent experiments, ± SEM", "value": "116 ± 6", "unit": "%"}, {"measurement": "EC50", "setting": "PTHR1 [5]", "value": 100, "unit": "nM"}, {"measurement": "PTHR1 β-arrestin-2 Recruitment % Max", "setting": "PTHR1 [5]; normalized against PTH(1-34), ≥3 independent experiments, ± SEM", "value": "21 ± 4", "unit": "%"}]}
{"molecule": "PTH(1-34) (peptide)", "values": [{"measurement": "IC50", "setting": "NLuc-PTHR1 [6]", "value": 22, "unit": "nM"}, {"measurement": "PTHR1 cAMP production, % Max", "setting": "NLuc-PTHR1 [7]", "value": 102, "unit": "%"}]}
{"molecule": "B1", "values": [{"measurement": "EC50 of PTH(1-34) for recruitment", "setting": "PTHR1-RLuc8", "value": 7.2, "unit": "nM"}, {"measurement": "EC50 of peptide 1 for recruitment", "setting": "PTHR1-RLuc8", "value": 100, "unit": "nM"}, {"measurement": "EC50 of peptide 2 for recruitment", "setting": "PTHR1-RLuc8", "value": 190, "unit": "nM"}]}
